Values of other authors as cited in patent US20020177614A1, “Methods for treating nuerodegenerative diseases including alzheimer's” (priority 2001, published 2002).

System: Diphtheria and Pseudomonas toxins
Details: several bacterial ADP-ribosylating toxins, including Diphtheria and Pseudomonas toxins

## NC(=O)c1cccnc1 [nicotinamide]
  effect on bacterial ADP-ribosylating toxins: prevent or reverse the effects
